From US12077503B2, “Substituted cyclic amides and their use as herbicides” (FMC CORPORATION, priority 2015, dated 2024)

What was measured:
Type in all cases: in vivo
[1] = tested on: pigweed (Amaranthus retroflexus); assay: Test A preemergence
[2] = tested on: giant foxtail (Setaria faberii); assay: Test A preemergence
Outline: (§1)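 Compounds were formulated in a non-phytotoxic solvent mixture with surfactant and applied as a preemergence directed soil spray after seeding, or sprayed postemergence over plants 2 to 10 cm tall at the one- to two-leaf stage. Evaluation after about 10 d compared treated with untreated controls, using a scale from 0 (no effect) to 100 (complete control).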

[3] = tested on: ryegrass, Italian (Italian ryegrass, Lolium multiflorum); assay: Test A preemergence
Outline: as §1

[4] = tested on: barnyardgrass (Echinochloa crus-galli); assay: Test A preemergence
Outline: as §1

[5] = tested on: Kochia (Kochia scoparia); assay: Test A preemergence
Outline: as §1

[6] = tested on: ragweed (common ragweed, Ambrosia elatior); assay: Test A preemergence
Outline: as §1

[7] = tested on: ducksalad (Heteranthera limosa); assay: Test B flooded paddy test; settings: Flood, 250 g ai/ha; 0 to 100 scale where 0 is no effect and 100 is complete control; 13 to 15 d
Outline: (§2)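 Greenhouse paddy pots with 2-leaf stage plants received compound by direct addition to floodwater 3 cm deep, kept at that level. Scored visually at 13–15 d versus controls (0 no effect; 100 complete control).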

[8] = tested on: sedge, umbrella (small-flower umbrella sedge, Cyperus difformis); assay: Test B flooded paddy test; settings: Flood, 250 g ai/ha; 0 to 100 scale where 0 is no effect and 100 is complete control; 13 to 15 d
Outline: as §2

[9] = tested on: barnyardgrass (Echinochloa crus-galli); assay: Test B flooded paddy test; settings: Flood, 250 g ai/ha; 0 to 100 scale where 0 is no effect and 100 is complete control; 13 to 15 d
Outline: as §2

[10] = tested on: rice (Oryra sativa); assay: Test B flooded paddy test; settings: Flood, 250 g ai/ha; 0 to 100 scale where 0 is no effect and 100 is complete control; 13 to 15 d
Outline: as §2

[11] = tested on: corn (Zea mays); assay: Test A postemergence
Outline: as §1

[12] = tested on: blackgrass (Alopecurus myosuroides); assay: Test A postemergence
Outline: as §1

[13] = tested on: Galium (catchweed bedstraw, Galium aparine); assay: Test A postemergence
Outline: as §1

[14] = tested on: pigweed (Amaranthus retroflexus); assay: Test A postemergence
Outline: as §1

[15] = tested on: giant foxtail (Setaria faberii); assay: Test A postemergence
Outline: as §1

[16] = tested on: ryegrass, Italian (Italian ryegrass, Lolium multiflorum); assay: Test A postemergence
Outline: as §1

[17] = tested on: barnyardgrass (Echinochloa crus-galli); assay: Test A postemergence
Outline: as §1

[18] = tested on: wheat (Triticum aestivum); assay: Test A postemergence
Outline: as §1

[19] = tested on: Kochia (Kochia scoparia); assay: Test A postemergence
Outline: as §1

[20] = tested on: ragweed (common ragweed, Ambrosia elatior); assay: Test A postemergence
Outline: as §1

[21] = 125 g ai/ha, Preemergence, visual injury after approximately 10 d, 0 to 100 scale where 0 is no effect and 100 is complete control
[22] = 500 g ai/ha, preemergence, 0 to 100 scale, 0 = no effect, 100 = complete control
[23] = 125 g ai/ha, postemergence, visual rating after approx. 10 d, 0 to 100 scale (0 no effect, 100 complete control)
[24] = 500 g ai/ha, postemergence, visual injury, 0 to 100 scale (0 no effect, 100 complete control), approx. 10 d
[25] = Preemergence, 500 g ai/ha, visual injury approx. 10 d
[26] = Postemergence, 500 g ai/ha, 0 to 100 scale where 0 is no effect and 100 is complete control
[27] = 125 g ai/ha, postemergence, visual injury rating on 0 to 100 scale (0 no effect, 100 complete control), approx. 10 d

SMILES | Plant response rating, Pigweed [1, 21] | Plant response rating, Pigweed [1, 22] | Plant response rating, Foxtail, Giant [2, 21] | Plant response rating, Foxtail, Giant [2, 22] | Plant response rating, Ryegrass, Italian [3, 21] | Plant response rating, Barnyardgrass [4, 21] | Plant response rating, Kochia [5, 21] | Plant response rating, Ragweed [6, 21] | Plant response rating, Ducksalad [7] | Plant response rating, Sedge, Umbrella [8] | Plant response rating, Barnyardgrass [9] | Plant response rating, Rice [10] | Plant response rating, Corn [11, 23] | Plant response rating, Galium [13, 23] | Plant response rating, Pigweed [14, 23] | Plant response rating, Foxtail, Giant [15, 23] | Plant response rating, Ryegrass, Italian [16, 23] | Plant response rating, Wheat [18, 23] | Plant response rating, Kochia [19, 23] | Plant response rating, Ragweed [20, 23] | further results
O=C1NCC(c2csc(Br)c2)C1C(=O)Nc1cccc(F)c1F (racemic) [Compound 649] | 50 | 60 | 50 | 70 | 30 | 80 | 60 | 20 | 100 | 0 | 60 | 0 | 0 | 50 | 0 | 30 | 30 | 0 | 30 | 20 | Plant response rating, Ryegrass, Italian [3, 22]: 70; Plant response rating, Barnyardgrass [4, 22]: 90; Plant response rating, Kochia [5, 22]: 70; Plant response rating, Ragweed [6, 22]: 70; Plant response rating, Corn [11, 24]: 0; Plant response rating, Blackgrass [12, 23]: 20; Plant response rating, Blackgrass [12, 24]: 60; Plant response rating, Galium [13, 24]: 70; Plant response rating, Pigweed [14, 24]: 30; Plant response rating, Foxtail, Giant [15, 24]: 60; Plant response rating, Ryegrass, Italian [16, 24]: 40; Plant response rating, Barnyardgrass [17, 23]: 60; Plant response rating, Barnyardgrass [17, 24]: 70; Plant response rating, Wheat [18, 24]: 0; Plant response rating, Kochia [19, 24]: 60; Plant response rating, Ragweed [20, 24]: 60
Cc1ccc(C2CNC(=O)C2C(=O)Nc2ccccc2F)cc1C(F)(F)F (racemic) [Compound 654] | 40 | 70 | 90 | 90 | 40 | 90 | 0 | 0 | 90 | 0 | 35 | 0 | 20 | 40 | 0 | 70 | 30 | 0 | 20 | 0 | Plant response rating, Ryegrass, Italian [3, 22]: 80; Plant response rating, Barnyardgrass [4, 22]: 90; Plant response rating, Kochia [5, 22]: 40; Plant response rating, Ragweed [6, 22]: 30; Plant response rating, Corn [11, 24]: 70; Plant response rating, Blackgrass [12, 23]: 30; Plant response rating, Blackgrass [12, 24]: 50; Plant response rating, Galium [13, 24]: 60; Plant response rating, Pigweed [14, 24]: 20; Plant response rating, Foxtail, Giant [15, 24]: 90; Plant response rating, Ryegrass, Italian [16, 24]: 60; Plant response rating, Barnyardgrass [17, 23]: 90; Plant response rating, Barnyardgrass [17, 24]: 90; Plant response rating, Wheat [18, 24]: 40; Plant response rating, Kochia [19, 24]: 50; Plant response rating, Ragweed [20, 24]: 20
O=C1NCC(c2cc(F)ccc2F)C1C(=O)Nc1ccccc1F (racemic) [Compound 544] | 0 |  | 70 |  | 0 | 30 | 0 | 0 | 45 | 0 | 25 | 0 | 0 | 0 | 0 | 0 | 0 | 0 | 0 | 0 | Pigweed plant response rating (0 to 100 scale, 0 is no effect, 100 is complete control) [1, 25]: 0; Foxtail, Giant plant response rating (0 to 100 scale, 0 is no effect, 100 is complete control) [2, 25]: 90; Ryegrass, Italian plant response rating (0 to 100 scale, 0 is no effect, 100 is complete control) [3, 25]: 0; Barnyardgrass plant response rating (0 to 100 scale, 0 is no effect, 100 is complete control) [4, 25]: 80; Kochia plant response rating (0 to 100 scale, 0 is no effect, 100 is complete control) [5, 25]: 0; Ragweed plant response rating (0 to 100 scale, 0 is no effect, 100 is complete control) [6, 25]: 0; Plant response rating, Corn [11, 26]: 20; Blackgrass plant response rating [12, 27]: 0; Plant response rating, Blackgrass [12, 26]: 0; Plant response rating, Galium [13, 26]: 0; Plant response rating, Pigweed [14, 26]: 0; Plant response rating, Foxtail, Giant [15, 26]: 60; Plant response rating, Ryegrass, Italian [16, 26]: 0; Barnyardgrass plant response rating [17, 27]: 20; Plant response rating, Barnyardgrass [17, 26]: 70; Plant response rating, Wheat [18, 26]: 0; Plant response rating, Kochia [19, 26]: 0; Plant response rating, Ragweed [20, 26]: 0
